pIC50: −log10 of the molar value.
Key:
VEGFR3 = VEGFR3 (Homo sapiens, UniProt P35916); assay: VEGFR3 kinase inhibition (Table 1); assay type: biochemical; details: read-out: VEGFR3, concentration that inhibits 50% of the kinase activity
B16 melanoma = assay: In vivo antitumour activity against B16 melanoma grafted subcutaneously in mice, oral administration; details: for T − C in days 750 mg: tumours reaching 750 mg
From the text: This activity of the compounds of the invention on […] tumours was studied on the B16 melanoma. […]
A product is considered to be active if log10 cell kill is greater than or equal to 0.7. A product is considered to be very active if log10 cell kill is greater than 2.8.
The animals bearing the tumours are randomized before being subjected to the various treatments and controls. In the case of treatment of tumours of the present invention, the treatment was started at an early stage, 3 to 4 days after implantation. […]
The tumours are measured two or three times a week until the tumour reaches approximately 2 g or until the death of the animal if the latter occurs before the tumour reaches 2 g. The animals are autopsied at the time of sacrifice.
The antitumour activity is determined according to the various parameters recorded.

PDGFRβ = PDGFRβ (Homo sapiens, UniProt P09619); assay: PDGFR kinase phosphorylation activity by radioactive labeling; assay type: biochemical; details: read-out: PDGFRβ, concentration that inhibits 50% of the kinase activity
Sequence of PDGFRβ (P09619 33-1106, species assumed): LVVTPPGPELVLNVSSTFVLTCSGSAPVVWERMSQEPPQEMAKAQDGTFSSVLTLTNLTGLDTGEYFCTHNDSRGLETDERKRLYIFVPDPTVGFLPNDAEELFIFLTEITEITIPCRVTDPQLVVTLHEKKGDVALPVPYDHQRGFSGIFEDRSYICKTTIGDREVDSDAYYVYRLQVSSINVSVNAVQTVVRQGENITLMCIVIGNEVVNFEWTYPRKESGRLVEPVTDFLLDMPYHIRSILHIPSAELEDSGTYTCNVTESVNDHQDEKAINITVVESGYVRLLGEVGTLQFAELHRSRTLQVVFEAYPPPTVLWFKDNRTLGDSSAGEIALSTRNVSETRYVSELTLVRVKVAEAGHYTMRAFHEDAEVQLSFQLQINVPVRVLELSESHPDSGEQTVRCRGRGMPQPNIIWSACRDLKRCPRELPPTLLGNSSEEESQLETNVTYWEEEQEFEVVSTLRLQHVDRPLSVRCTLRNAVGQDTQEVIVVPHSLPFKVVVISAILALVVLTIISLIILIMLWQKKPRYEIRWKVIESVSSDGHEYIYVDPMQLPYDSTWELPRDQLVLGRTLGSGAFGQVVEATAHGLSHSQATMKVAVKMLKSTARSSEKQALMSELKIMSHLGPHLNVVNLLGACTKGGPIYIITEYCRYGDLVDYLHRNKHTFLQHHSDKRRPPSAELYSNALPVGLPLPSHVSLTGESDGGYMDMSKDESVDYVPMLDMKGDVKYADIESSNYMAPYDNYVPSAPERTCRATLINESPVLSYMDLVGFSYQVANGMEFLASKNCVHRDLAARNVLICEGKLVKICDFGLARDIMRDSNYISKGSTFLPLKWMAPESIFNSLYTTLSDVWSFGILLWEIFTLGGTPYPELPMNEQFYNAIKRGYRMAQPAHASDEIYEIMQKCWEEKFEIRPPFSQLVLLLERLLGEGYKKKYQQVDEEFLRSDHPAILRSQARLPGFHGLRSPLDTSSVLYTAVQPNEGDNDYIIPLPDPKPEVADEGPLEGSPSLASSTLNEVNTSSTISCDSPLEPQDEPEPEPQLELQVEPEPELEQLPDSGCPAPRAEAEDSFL
Procedure: 4. Screening of Molecules by Measuring, by Radioactive Labeling, the PDGFR Kinase Phosphorylation Activity in the Presence of PLCγ Substrate The test is carried out in a similar manner to that carried out with the FLT1 enzyme by using, instead of 13 nM of Flt1, 16 nM of PDGFR enzyme and mixed in the 96-well plates are 18 μl of GST-PDGFR enzyme at 4 mg/ml (for a purity of 80%) batch VLT802.

[1] = PO 62 mg/kg/adm, days 4-14 (2x/d)
[2] = PO 99 mg/kg/adm, days 4-14 (2x/d)
[3] = PO 160.0 mg/kg/adm, days 4-14 (2x/d)
[4] = PO 61.5 mg/kg/adm, day 3-10 (2x/d)
[5] = PO 99.2 mg/kg/adm, day 3-10 (2x/d)

Sequence of VEGFR3 (P35916 25-1363, species assumed): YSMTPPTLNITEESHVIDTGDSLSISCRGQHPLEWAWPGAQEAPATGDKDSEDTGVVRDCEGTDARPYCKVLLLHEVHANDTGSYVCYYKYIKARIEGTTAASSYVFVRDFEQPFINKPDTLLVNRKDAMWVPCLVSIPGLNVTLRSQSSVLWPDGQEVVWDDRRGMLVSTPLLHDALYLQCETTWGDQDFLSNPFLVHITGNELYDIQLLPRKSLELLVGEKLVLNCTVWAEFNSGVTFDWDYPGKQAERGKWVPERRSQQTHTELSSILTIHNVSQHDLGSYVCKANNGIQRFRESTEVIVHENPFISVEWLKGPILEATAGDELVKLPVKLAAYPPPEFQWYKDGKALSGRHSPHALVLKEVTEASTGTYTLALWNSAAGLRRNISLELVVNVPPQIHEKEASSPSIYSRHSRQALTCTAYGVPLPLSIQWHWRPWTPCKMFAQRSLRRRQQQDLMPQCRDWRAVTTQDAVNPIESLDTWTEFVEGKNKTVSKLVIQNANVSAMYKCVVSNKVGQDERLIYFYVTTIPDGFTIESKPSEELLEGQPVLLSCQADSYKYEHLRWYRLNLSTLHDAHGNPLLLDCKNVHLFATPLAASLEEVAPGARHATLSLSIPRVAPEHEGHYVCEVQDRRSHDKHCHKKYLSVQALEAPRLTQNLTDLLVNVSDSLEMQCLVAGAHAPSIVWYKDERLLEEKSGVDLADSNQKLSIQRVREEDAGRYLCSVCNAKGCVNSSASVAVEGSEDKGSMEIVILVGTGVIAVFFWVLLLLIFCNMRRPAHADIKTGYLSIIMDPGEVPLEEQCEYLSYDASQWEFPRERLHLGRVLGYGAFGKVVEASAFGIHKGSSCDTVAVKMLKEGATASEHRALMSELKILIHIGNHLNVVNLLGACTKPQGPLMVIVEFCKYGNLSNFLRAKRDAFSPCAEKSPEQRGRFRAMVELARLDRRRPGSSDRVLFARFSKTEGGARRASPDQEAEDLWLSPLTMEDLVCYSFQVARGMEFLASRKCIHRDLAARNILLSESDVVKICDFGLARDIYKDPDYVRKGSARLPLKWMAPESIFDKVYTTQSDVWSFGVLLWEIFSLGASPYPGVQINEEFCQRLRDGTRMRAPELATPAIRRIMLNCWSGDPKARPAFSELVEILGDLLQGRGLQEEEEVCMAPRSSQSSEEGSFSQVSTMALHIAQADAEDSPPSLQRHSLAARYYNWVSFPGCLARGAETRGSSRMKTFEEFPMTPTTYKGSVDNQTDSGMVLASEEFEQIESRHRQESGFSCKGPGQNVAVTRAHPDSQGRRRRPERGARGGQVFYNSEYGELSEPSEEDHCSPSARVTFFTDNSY

## Cl.NC(=O)c1n[nH]cc1NCc1cc(F)cc(NC(=O)Nc2ccc(C(F)(F)F)cc2Cl)c1 [Example 1, 4-{3-[3-(2-Chloro-4-trifluoromethylphenyl)ureido]-5-fluorobenzylamino}-1H-pyrazole-3-carboxamide hydrochloride]
VEGFR3
  pIC50: 8.52
B16 melanoma; PO 44 mg/kg/adm, day 4-14
  Comments: Inactive
  Average weight of the tumour in mg on day 13: 686 mg
  T/C in % day 13: 51%
B16 melanoma; PO 44 mg/kg/adm, day 4-14, total 481 mg/kg, BCM-1948
  Death due to the product (day of death): 0/5
B16 melanoma; PO 44 mg/kg/adm, day 4-14, low point day 15
  % BWC (day of low point): +10.6 (15) %
B16 melanoma; [1]
  Comments: Active
  Total log cell kill: 2.3
  Average weight of the tumour in mg on day 13: 128 mg
  T/C in % day 13: 10%
  T − C in days 750 mg: 6.2 days
B16 melanoma; PO 62 mg/kg/adm, days 4-14 (2x/d), total 1232 mg/kg, BCM-1948
  Death due to the product (day of death): 0/5
B16 melanoma; PO 62 mg/kg/adm, days 4-14 (2x/d), low point day 5
  % BWC (day of low point): +1.8 (5) %
B16 melanoma; [2]
  Comments: Active
  Total log cell kill: 2.3
  Average weight of the tumour in mg on day 13: 72 mg
  T/C in % day 13: 5%
  T − C in days 750 mg: 6.2 days
B16 melanoma; PO 99 mg/kg/adm, days 4-14 (2x/d), total 1966 mg/kg, BCM-1948
  Death due to the product (day of death): 0/5
B16 melanoma; PO 99 mg/kg/adm, days 4-14 (2x/d), low point day 5
  % BWC (day of low point): −1.0 (5) %
B16 melanoma; [3]
  Total log cell kill: 2.6
  Average weight of the tumour in mg on day 13: 23 mg
  T/C in % day 13: 2%
  T − C in days 750 mg: 6.8 days
B16 melanoma; PO 160.0 mg/kg/adm, days 4-14 (2x/d), total 3178 mg/kg, BCM-1948
  Death due to the product (day of death): 0/5
B16 melanoma; PO 160.0 mg/kg/adm, days 4-14 (2x/d), HDT = highest dose tested
  Comments: HDT active
B16 melanoma; PO 160.0 mg/kg/adm, days 4-14 (2x/d), low point day 6
  % BWC (day of low point): −2.3 (6) %
PDGFRβ
  pIC50: 7.96

## Cl.NC(=O)c1n[nH]cc1NCc1cc(F)cc(NC(=O)Nc2ccc(C(F)(F)F)cc2F)c1 [Example 2, 4-{3-[3-(2-Fluoro-4-trifluoromethylphenyl)ureido]-5-fluorobenzylamino}-1H-pyrazole-3-carboxamide hydrochloride]
B16 melanoma; PO 44.0 mg/kg/adm, day 3-10
  Comments: Active
  Total log cell kill: 1.0
  Average weight of the tumour in mg on day 11: 201 mg
  T/C in % day 11: 27%
  T − C in days 750 mg: 3.0 days
B16 melanoma; PO 44.0 mg/kg/adm, day 3-10, total 352.0 mg/kg, BCM-1979
  Death due to the product (day of death): 0/6
B16 melanoma; PO 44.0 mg/kg/adm, day 3-10, low point day 11
  % BWC (day of low point): +6.6 (11) %
B16 melanoma; [4]
  Comments: Active
  Total log cell kill: 1.7
  Average weight of the tumour in mg on day 11: 46 mg
  T/C in % day 11: 6%
  T − C in days 750 mg: 5.0 days
B16 melanoma; PO 61.5 mg/kg/adm, day 3-10 (2x/d), total 984 mg/kg, BCM-1979
  Death due to the product (day of death): 0/6
B16 melanoma; PO 61.5 mg/kg/adm, day 3-10 (2x/d), low point day 11
  % BWC (day of low point): +3.9 (11) %
B16 melanoma; [5]
  Total log cell kill: 1.8
  Average weight of the tumour in mg on day 11: 0 mg
  T/C in % day 11: 0%
  T − C in days 750 mg: 5.4 days
B16 melanoma; PO 99.2 mg/kg/adm, day 3-10 (2x/d), total 1587.2 mg/kg, BCM-1979
  Death due to the product (day of death): 0/6
B16 melanoma; PO 99.2 mg/kg/adm, day 3-10 (2x/d), HNTD = highest nontoxic dose
  Comments: HNTD active
B16 melanoma; PO 99.2 mg/kg/adm, day 3-10 (2x/d), low point day 11
  % BWC (day of low point): −8.1 (11) %
B16 melanoma; PO 160.0 mg/kg/adm, day 3-10 (2x/d)
  Comments: Toxic
B16 melanoma; PO 160.0 mg/kg/adm, day 3-10 (2x/d), total 2560.0 mg/kg, BCM-1979, days of death 10, 2d11, 13, 2d14
  Death due to the product (day of death): 6/6
B16 melanoma; PO 160.0 mg/kg/adm, day 3-10 (2x/d), low point day 13
  % BWC (day of low point): −26.5 (13) %
PDGFRβ
  pIC50: 7.70

Source: patent US8367715B2, “Pyrazole derivatives, preparation thereof, and therapeutic use thereof” (priority 2009, dated 2013)
